Source: patent publication US9394285B2 (Pfizer Inc., priority 2013, dated 2016)

What was measured:
[1] = biological target: human AMPK (full-length γ1, β1 and α1 subunits) (Homo sapiens (Human), UniProt Q13131+Q9Y478); assay: AMPK in vitro biochemical assay (33P-based, SAMS peptide, PP2A dephosphorylation); conditions: for EC50: activation of phosphorylated AMPK, 33P-ATP, SAMS peptide, PP2A treatment, 4-parameter fit; for Emax: read-out: Maximum
Method in brief: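 Phosphorylated full-length α1β1γ1 AMPK (E. coli-expressed, His-purified, gel-filtered) preincubated 15 min RT with compound in HEPES pH 7.5, 10 mM MgCl2 buffer, then PP2A added to dephosphorylate pThr172.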

[2] = counts as % of positive control wells (enzyme, allosteric activator or AMP, PP2A and substrate)

Chain of human AMPK (full-length γ1, β1 and α1 subunits) (Q13131 whole entry): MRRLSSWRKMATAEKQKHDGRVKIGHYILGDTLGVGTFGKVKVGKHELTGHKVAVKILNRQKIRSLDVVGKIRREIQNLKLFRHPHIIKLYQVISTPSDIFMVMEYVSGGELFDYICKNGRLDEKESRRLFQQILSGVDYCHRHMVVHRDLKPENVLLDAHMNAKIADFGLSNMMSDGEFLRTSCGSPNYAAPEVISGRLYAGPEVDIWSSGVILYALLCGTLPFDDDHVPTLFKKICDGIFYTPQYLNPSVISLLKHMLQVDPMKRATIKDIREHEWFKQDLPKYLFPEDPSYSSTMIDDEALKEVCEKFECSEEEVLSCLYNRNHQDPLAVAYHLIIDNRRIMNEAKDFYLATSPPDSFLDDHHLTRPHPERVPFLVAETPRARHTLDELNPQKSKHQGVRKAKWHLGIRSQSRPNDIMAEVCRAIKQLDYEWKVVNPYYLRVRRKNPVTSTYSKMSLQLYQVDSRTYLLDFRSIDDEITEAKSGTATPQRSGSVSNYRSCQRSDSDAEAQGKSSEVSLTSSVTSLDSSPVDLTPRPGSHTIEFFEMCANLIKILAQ
Chain of human AMPK (full-length γ1, β1 and α1 subunits) (Q9Y478 whole entry): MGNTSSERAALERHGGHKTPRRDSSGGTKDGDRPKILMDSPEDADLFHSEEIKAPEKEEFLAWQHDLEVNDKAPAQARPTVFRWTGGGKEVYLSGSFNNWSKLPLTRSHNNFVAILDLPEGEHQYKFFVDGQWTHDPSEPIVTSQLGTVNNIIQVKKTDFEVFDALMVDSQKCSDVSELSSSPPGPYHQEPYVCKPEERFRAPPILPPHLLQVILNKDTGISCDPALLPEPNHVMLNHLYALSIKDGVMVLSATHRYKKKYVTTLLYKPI
Chain of human AMPK (full-length γ1, β1 and α1 subunits) (P54619 whole entry partner): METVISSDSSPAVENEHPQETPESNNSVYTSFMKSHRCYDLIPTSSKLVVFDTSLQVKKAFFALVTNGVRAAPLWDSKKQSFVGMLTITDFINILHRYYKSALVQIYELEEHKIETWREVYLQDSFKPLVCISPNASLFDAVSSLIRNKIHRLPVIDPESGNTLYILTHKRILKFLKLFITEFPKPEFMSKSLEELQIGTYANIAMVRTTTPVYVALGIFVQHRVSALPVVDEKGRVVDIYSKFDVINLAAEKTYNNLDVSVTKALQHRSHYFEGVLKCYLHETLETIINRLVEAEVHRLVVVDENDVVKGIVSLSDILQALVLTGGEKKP

| EC50 [1] | Emax [1, 2] | melting point | Maximum [1, 2] | SMILES |
| --- | --- | --- | --- | --- |
| 16 nM | 88% | 270.9 to 271.6 °C |  | N#Cc1cc2[nH]cc(C(=O)O)c2cc1-c1ccc(C2(CO)CC2)cc1 [Example 23, 6-cyano-5-{4-[1-(hydroxymethyl)cyclopropyl]phenyl}-1H-indole-3-carboxylic acid] |
| 305 nM | 100% | 295 °C |  | O=C(O)c1n[nH]c2cc(F)c(-c3ccc(C4CCOCC4)cc3)cc12 [Example 130, 6-Fluoro-5-(4-(tetrahydro-2H-pyran-4-yl)phenyl)-1H-indazole-3-carboxylic acid] |
| 30 nM | 92% | 209.3 to 209.6 °C |  | O=C(O)c1c[nH]c2cc(Cl)c(-c3ccc(OCCCO)cc3)cc12 [Example 30, 6-chloro-5-[4-(3-hydroxypropoxy)phenyl]-1H-indole-3-carboxylic acid] |
| 483 nM | 46% | 240 °C (dec.) |  | COc1ccc(-c2cc3c(S(=O)(=O)O)c[nH]c3cc2Cl)cc1 [Example 132, 6-Chloro-5-(4-methoxyphenyl)-1H-indole-3-sulfonic acid] |
| 101 nM | 101% |  |  | COC(=O)N1CCC(c2ccc(-c3cc4c(C(=O)O)c[nH]c4cc3Cl)cc2)C1 (single isomer, unassigned) [Example 14A, 6-chloro-5-{4-[1-(methoxycarbonyl)pyrrolidin-3-yl]phenyl}-1H-indole-3-carboxylic acid] |
| 38.5 nM | 94% |  |  | CCOc1ccc(-c2cc3c(C(=O)O)n[nH]c3cc2Cl)cc1 [Example 99, 6-Chloro-5-(4-ethoxyphenyl)-1H-indazole-3-carboxylic acid] |
| 90.2 nM | 107% |  |  | CC(=O)N1CCC(c2ccc(-c3cc4c(C(=O)O)n[nH]c4cc3Cl)cc2)CC1 [Example 117, 5-(4-(1-Acetylpiperidin-4-yl)phenyl)-6-chloro-1H-indazole-3-carboxylic acid] |
| 69.5 nM | 112% |  |  | O=C(O)c1c[nH]c2cc(Cl)c(-c3ccc4c(c3)OC[C@@H](CO)O4)cc12 [Example 87, 6-chloro-5-[(2R)-2-(hydroxymethyl)-2,3-dihydro-1,4-benzodioxin-6-yl]-1H-indole-3-carboxylic acid] |
| 22 nM | 120% |  |  | CN1CCN(CCCOc2ccc(-c3cc4c(C(=O)O)c[nH]c4cc3Cl)cc2)CC1 [Example 53, 6-chloro-5-{4-[3-(4-methylpiperazin-1-yl)propoxy]phenyl}-1H-indole-3-carboxylic acid] |
| 11 nM |  |  | 101.1% | O=C(O)c1c[nH]c2cc(F)c(-c3ccc(C4CCCCO4)cc3)cc12 (single isomer, unassigned) [Example 172, 6-fluoro-5-[4-(tetrahydro-2H-pyran-2-yl)phenyl]-1H-indole-3-carboxylic acid] |
| 220 nM | 94% |  |  | CC(=O)N1CC(Oc2ccc(-c3cc4c(C(=O)O)c[nH]c4cc3Cl)cc2)C1 [Example 8, 5-{4-[(1-acetylazetidin-3-yl)oxy]phenyl}-6-chloro-1H-indole-3-carboxylic acid] |
| 169 nM | 125% |  |  | COc1ccc(-c2cc3c(C(=O)NS(=O)(=O)c4ccccc4)n[nH]c3cc2Cl)cc1 [Example 118, 6-Chloro-5-(4-methoxyphenyl)-N-(phenylsulfonyl)-1H-indazole-3-carboxamide] |
| 9.6 nM | 62% |  |  | Cc1cc(-c2cc3c(C(=O)O)c[nH]c3cc2Cl)ccc1C1(O)CCC1 [Example 41, 6-chloro-5-[4-(1-hydroxycyclobutyl)-3-methylphenyl]-1H-indole-3-carboxylic acid] |
| 93.5 nM | 86% |  |  | CC(C)(CO)COc1ccc(-c2cc3c(C(=O)O)c[nH]c3cc2Cl)cc1 [Example 21] |
| 345 nM | 100% |  |  | O=C(O)c1n[nH]c2cc(Cl)c(-c3ccc4c(c3)CCO4)cc12 [Example 113, 6-Chloro-5-(2,3-dihydrobenzofuran-5-yl)-1H-indazole-3-carboxylic acid] |
| 2.9 nM | 106% |  |  | COc1nc(N2CC[C@@H](O)C2)ccc1-c1cc2c(C(=O)O)c[nH]c2cc1Cl [Example 185, 6-chloro-5-{6-[(3R)-3-hydroxypyrrolidin-1-yl]-2-methoxypyridin-3-yl}-1H-indole-3-carboxylic acid] |
| 6.56 nM | 119% |  |  | CC(C)(CO)c1ccc(-c2cc3c(C(=O)O)c[nH]c3cc2Cl)cc1O [Example 148, 6-chloro-5-[3-hydroxy-4-(1-hydroxy-2-methylpropan-2-yl)phenyl]-1H-indole-3-carboxylic acid] |
| 5.6 nM | 62.4% |  |  | COc1nc(N2CCC(OC)C2)ccc1-c1cc2c(C(=O)O)c[nH]c2cc1Cl (stereo in doubt) [Example 176, 6-chloro-5-{2-methoxy-6-[(3S)-3-methoxypyrrolidin-1-yl]pyridin-3-yl}-1H-indole-3-carboxylic acid] |
| 33.3 nM | 74% |  |  | COc1cc(C2(O)CCC2)ccc1-c1cc2c(C(=O)O)c[nH]c2cc1Cl [Example 62, 6-chloro-5-[4-(1-hydroxycyclobutyl)-2-methoxyphenyl]-1H-indole-3-carboxylic acid] |
| 632 nM | 92% |  |  | CC(=O)N1CCC(c2ccc(-c3cc4c(C(=O)O)c[nH]c4cc3Cl)cc2)C1 (centres unmarked) [Example 15, 5-[4-(1-acetylpyrrolidin-3-yl)phenyl]-6-chloro-1H-indole-3-carboxylic acid] |
| 182 nM | 97% |  |  | O=C(O)c1c[nH]c2cc(Cl)c(-c3ccc(OCCO)c(F)c3)cc12 [Example 81, 6-chloro-5-[3-fluoro-4-(2-hydroxyethoxy)phenyl]-1H-indole-3-carboxylic acid] |
| 190 nM | 80% |  |  | CC(C)Oc1ccc(-c2cc3c(C(=O)O)n[nH]c3cc2Cl)cc1 [Example 100, 6-Chloro-5-(4-isopropoxyphenyl)-1H-indazole-3-carboxylic acid] |
| 181 nM | 92% |  |  | O=C(O)c1c[nH]c2cc(Cl)c(-c3ccc(OC4COC4)cc3)cc12 [Example 18, 6-chloro-5-[4-(oxetan-3-yloxy)phenyl]-1H-indole-3-carboxylic acid] |
| 14 nM | 75% |  |  | O=C(O)c1c[nH]c2cc(Cl)c(-c3ccc(CCO)cc3)cc12 [Example 71, 6-chloro-5-[4-(2-hydroxyethyl)phenyl]-1H-indole-3-carboxylic acid] |
| 99.2 nM | 99% |  |  | O=C(O)c1c[nH]c2cc(Cl)c(-c3ccc(OCCO)cc3F)cc12 [Example 86, 6-chloro-5-[2-fluoro-4-(2-hydroxyethoxy)phenyl]-1H-indole-3-carboxylic acid] |
| 17.7 nM | 194% |  |  | O=C(O)c1c[nH]c2cc(F)c(-c3ccc(C4(CO)CCC4)cc3)cc12 [Example 143, 6-fluoro-5-{4-[1-(hydroxymethyl)cyclobutyl]phenyl}-1H-indole-3-carboxylic acid] |
| 204 nM | 79% |  |  | O=C(O)c1c[nH]c2cc(Cl)c(-c3ccc(O[C@H]4CCCC[C@@H]4O)cc3)cc12 [Example 50, 6-chloro-5-(4-{[(1S,2S)-2-hydroxycyclohexyl]oxy}phenyl)-1H-indole-3-carboxylic acid] |
| 790 nM | 118% |  |  | CN(C)c1ncc(-c2cc3c(C(=O)O)c[nH]c3cc2Cl)cn1 [Example 73, 6-chloro-5-[2-(dimethylamino)pyrimidin-5-yl]-1H-indole-3-carboxylic acid] |
| 69.9 nM | 91% |  |  | CC(=O)NCCOc1ccc(-c2cc3c(C(=O)O)c[nH]c3cc2Cl)cc1 [Example 10, 5-{4-[2-(acetylamino)ethoxy]phenyl}-6-chloro-1H-indole-3-carboxylicacid] |
